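At the GI50, growth is halved. The concentration for full growth arrest is given as TGI.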
Experiments:
Assay in all cases: NCI anticancer screen, dose series, 384-well format
[1] = test system: HCC-2998 colon
[2] = test system: HOP-62 NSCLC
[3] = test system: NCI-H522 lung
[4] = test system: MDA-MB-435 melanoma
[5] = test system: OVCAR-4 ovarian
[6] = test system: KM12 colon
[7] = test system: SK-OV-3 ovarian
[8] = test system: HL-60(TB) leukemia
[9] = test system: LOX IMVI melanoma
[10] = test system: ACHN renal
[11] = test system: MOLT-4 leukemia
[12] = test system: MDA-MB-468 breast
[13] = test system: SF-295 CNS
[14] = test system: SW-620 colon
[15] = test system: BT-549 breast
[16] = test system: HCT-15 colon
[17] = test system: IGROV1 ovarian
[18] = test system: COLO 205 colon
[19] = test system: OVCAR-5 ovarian
[20] = test system: HS 578T breast
[21] = test system: M14 melanoma
[22] = test system: TK-10 renal
[23] = test system: UO-31 renal
[24] = test system: MALME-3M melanoma
[25] = test system: SF-268 CNS
[26] = test system: RPMI-8226 leukemia
[27] = test system: NCI-H226 lung
[28] = test system: RXF 393 renal
[29] = test system: HT29 colon
[30] = test system: SNB-19 CNS

NC(=O)Nc1cc(-c2cccc(F)c2)sc1C(=O)N[C@H]1CCCNC1
GI50 [1]: 10.6 nM | TGI [1]: 149 nM | GI50 [2]: 146 nM | TGI [2]: 565 nM | GI50 [3]: 128 nM | TGI [3]: 589 nM | GI50 [4]: 143 nM | TGI [4]: 302 nM | GI50 [5]: 69.6 nM | TGI [5]: 348 nM | GI50 [6]: 22 nM | TGI [6]: 228 nM | GI50 [7]: 136 nM | TGI [7]: 380 nM | GI50 [8]: 120 nM | TGI [8]: 245 nM | GI50 [9]: 359 nM | TGI [9]: 1240 nM | GI50 [10]: 49.7 nM | TGI [10]: 295 nM | GI50 [11]: 40.6 nM | TGI [11]: 189 nM | GI50 [12]: 202 nM | TGI [12]: 698 nM | GI50 [13]: 142 nM | TGI [13]: 461 nM | GI50 [14]: 595 nM | TGI [14]: 2120 nM | GI50 [15]: 16.6 nM | TGI [15]: 105 nM | GI50 [16]: 1280 nM | TGI [16]: 2890 nM | GI50 [17]: 79.6 nM | TGI [17]: 887 nM | GI50 [18]: 261 nM | TGI [18]: 1080 nM | GI50 [19]: 289 nM | TGI [19]: 1620 nM | GI50 [20]: 13.2 nM | TGI [20]: 284 nM | GI50 [21]: 45.1 nM | TGI [21]: 224 nM | GI50 [22]: 109 nM | TGI [22]: 357 nM | GI50 [23]: 362 nM | TGI [23]: 1510 nM | GI50 [24]: 185 nM | TGI [24]: 1740 nM | GI50 [25]: 132 nM | TGI [25]: 910 nM | GI50 [26]: 34.9 nM | TGI [26]: 186 nM | GI50 [27]: 508 nM | TGI [27]: 2300 nM | GI50 [28]: 12.1 nM | TGI [28]: 43.2 nM | GI50 [29]: 221 nM | TGI [29]: 700 nM | GI50 [30]: 377 nM
